What all share (test): Kinase selectivity profiling
Assay type in all cases: biochemical

One experiment addresses CLK2 (Homo sapiens, UniProt P49760). The conditions noted are these: 110-kinase panel. The source says:
(§1) Compound 28c was profiled against a panel of 110 kinases at the International Centre for Protein Kinase Profiling, Division of Signal Transduction Therapy, University of Dundee. Compound 40f was profiled against a panel of 50 kinases (MRC-PPU Express Screen) also at the International Centre for Protein Kinase Profiling.

For a further experiment, the target named is NEK2a (Homo sapiens, UniProt P51955). The conditions noted are these: 110-kinase panel.
Excerpt: as §1

A further experiment has as its target ASK1 (Homo sapiens, UniProt Q99683). The conditions noted are these: 110-kinase panel.
Excerpt: as §1

A further experiment deals with MAPKAP-K3 (Homo sapiens, UniProt Q16644). The following applies: 110-kinase panel, read-out: % activity remaining, MAPKAP2K3.
Excerpt: as §1

In the next experiment the target is MKK6 (Homo sapiens, UniProt P52564). The following applies: 110-kinase panel.
Excerpt: as §1

For another experiment, the target named is ERK1 (Homo sapiens, UniProt P27361). The conditions noted are these: 110-kinase panel.
Excerpt: as §1

Another experiment deals with YES1 (Homo sapiens, UniProt P07947). The following applies: 110-kinase panel.
Excerpt: as §1

A further experiment deals with IRR (Homo sapiens, UniProt P14616). The following applies: 110-kinase panel.
Excerpt: as §1

In another experiment the target is TAO1 (Homo sapiens, UniProt Q7L7X3). The conditions noted are these: 110-kinase panel.
Excerpt: as §1

For a further experiment, the target named is PKCz (Homo sapiens, UniProt Q05513). The conditions noted are these: 110-kinase panel.
Excerpt: as §1

The target of another experiment is PRAK (Homo sapiens, UniProt Q8IW41). The conditions noted are these: 110-kinase panel.
Excerpt: as §1

The target in another experiment is IKKe (Homo sapiens, UniProt Q14164). The conditions noted are these: 110-kinase panel.
Excerpt: as §1

For a further experiment, the target named is PKBb (Homo sapiens, UniProt P31751). The conditions noted are these: 110-kinase panel.
Excerpt: as §1

The next experiment has as its target RSK2 (Homo sapiens, UniProt P51812). The conditions noted are these: 110-kinase panel.
Excerpt: as §1

For another experiment, the target named is MARK4 (Homo sapiens, UniProt Q96L34). The following applies: 110-kinase panel.
Excerpt: as §1

A further experiment deals with PIM2 (Homo sapiens, UniProt Q9P1W9). The following applies: 110-kinase panel.
Excerpt: as §1

For a further experiment, the target named is p38b MAPK (Homo sapiens, UniProt Q15759). The conditions noted are these: 110-kinase panel.
Excerpt: as §1

Another experiment has as its system AMPK. The following applies: 1 µM; 110-kinase panel.
Excerpt: as §1

Another experiment deals with DYRK2 (Homo sapiens, UniProt Q92630). The following applies: 110-kinase panel.
Excerpt: as §1

Another experiment deals with ERK2 (Homo sapiens, UniProt P28482). The conditions noted are these: 110-kinase panel.
Excerpt: as §1

The target of the next experiment is ERK8 (Homo sapiens, UniProt Q8TD08). The conditions noted are these: 110-kinase panel.
Excerpt: as §1

A further experiment addresses EPH-B2 (Homo sapiens, UniProt P29323). The conditions noted are these: 110-kinase panel, read-out: % activity remaining, EPH2B2.
Excerpt: as §1

The next experiment deals with EPH-B3 (Homo sapiens, UniProt P54753). The following applies: 110-kinase panel, read-out: % activity remaining, EPH2B3.
Excerpt: as §1

A further experiment deals with CSK (Homo sapiens, UniProt P41240). The following applies: 110-kinase panel.
Excerpt: as §1

The target of a further experiment is GCK (Homo sapiens, UniProt Q12851). The following applies: 110-kinase panel.
Excerpt: as §1

Another experiment deals with PHK (Homo sapiens, UniProt Q16816). The conditions noted are these: 110-kinase panel.
Excerpt: as §1

The next experiment concerns the target FGF-R1 (Homo sapiens, UniProt P11362). The conditions noted are these: 110-kinase panel, read-out: % activity remaining, FGF2R1.
Excerpt: as §1

Another experiment concerns the target JNK2 (Homo sapiens, UniProt P45984). The conditions noted are these: 110-kinase panel.
Excerpt: as §1

A further experiment concerns the target BRSK1 (Homo sapiens, UniProt Q8TDC3). The following applies: 110-kinase panel.
Excerpt: as §1

The target in another experiment is p38d MAPK (Homo sapiens, UniProt O15264). The conditions noted are these: 110-kinase panel.
Excerpt: as §1

The target of another experiment is EPH-A4 (Homo sapiens, UniProt P54764). The conditions noted are these: 110-kinase panel, read-out: % activity remaining, EPH2A4.
Excerpt: as §1

In another experiment the target is EPH-B4 (Homo sapiens, UniProt P54760). The conditions noted are these: 110-kinase panel, read-out: % activity remaining, EPH2B4.
Excerpt: as §1

Another experiment has as its target CK1 (Homo sapiens, UniProt P48730). The conditions noted are these: 110-kinase panel.
Excerpt: as §1

For the next experiment, the target named is PAK2 (Homo sapiens, UniProt Q13177). The following applies: 110-kinase panel.
Excerpt: as §1

A further experiment has as its target DYRK3 (Homo sapiens, UniProt O43781). The conditions noted are these: 110-kinase panel.
Excerpt: as §1

Another experiment addresses IR (Homo sapiens, UniProt P06213). The conditions noted are these: 110-kinase panel.
Excerpt: as §1

In a further experiment the target is BRSK2 (Homo sapiens, UniProt Q8IWQ3). The conditions noted are these: 110-kinase panel.
Excerpt: as §1

The next experiment deals with IKKb (Homo sapiens, UniProt O14920). The conditions noted are these: 110-kinase panel.
Excerpt: as §1

Another experiment deals with PIM3 (Homo sapiens, UniProt Q86V86). The conditions noted are these: 110-kinase panel.
Excerpt: as §1

Another experiment concerns the target MEKK1 (Homo sapiens, UniProt Q13233). The conditions noted are these: 110-kinase panel.
Excerpt: as §1

A further experiment has as its target CK1δ (Homo sapiens, UniProt P48730). The following applies: 50-kinase panel (MRC-PPU Express Screen).
Excerpt: as §1

Sequence of EPH-A4 (P54764 20-986): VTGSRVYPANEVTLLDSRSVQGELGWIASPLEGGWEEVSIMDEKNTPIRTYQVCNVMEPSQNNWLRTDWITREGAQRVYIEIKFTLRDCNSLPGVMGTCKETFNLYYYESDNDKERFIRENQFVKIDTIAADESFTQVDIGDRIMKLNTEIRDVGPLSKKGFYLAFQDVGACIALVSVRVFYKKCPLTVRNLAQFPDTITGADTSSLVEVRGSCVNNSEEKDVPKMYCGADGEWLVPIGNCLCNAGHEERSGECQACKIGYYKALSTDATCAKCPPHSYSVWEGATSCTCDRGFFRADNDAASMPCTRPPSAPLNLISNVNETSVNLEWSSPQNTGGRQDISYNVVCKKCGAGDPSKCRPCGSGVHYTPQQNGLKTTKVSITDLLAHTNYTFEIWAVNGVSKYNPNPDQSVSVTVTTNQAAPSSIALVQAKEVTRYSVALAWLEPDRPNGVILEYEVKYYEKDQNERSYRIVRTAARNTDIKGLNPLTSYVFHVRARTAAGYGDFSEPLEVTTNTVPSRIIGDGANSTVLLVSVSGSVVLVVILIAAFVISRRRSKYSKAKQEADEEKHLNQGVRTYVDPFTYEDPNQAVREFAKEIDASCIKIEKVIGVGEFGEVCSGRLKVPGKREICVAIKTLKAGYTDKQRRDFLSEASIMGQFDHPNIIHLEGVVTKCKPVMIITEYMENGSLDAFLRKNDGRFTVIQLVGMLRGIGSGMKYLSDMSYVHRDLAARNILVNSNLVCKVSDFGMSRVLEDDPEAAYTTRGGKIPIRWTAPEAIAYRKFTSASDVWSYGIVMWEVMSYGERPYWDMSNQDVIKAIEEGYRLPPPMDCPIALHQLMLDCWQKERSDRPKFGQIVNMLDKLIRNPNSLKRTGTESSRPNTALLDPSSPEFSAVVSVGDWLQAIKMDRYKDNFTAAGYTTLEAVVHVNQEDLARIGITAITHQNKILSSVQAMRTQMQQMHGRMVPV
Sequence of MAPKAP-K3 (Q16644 whole entry): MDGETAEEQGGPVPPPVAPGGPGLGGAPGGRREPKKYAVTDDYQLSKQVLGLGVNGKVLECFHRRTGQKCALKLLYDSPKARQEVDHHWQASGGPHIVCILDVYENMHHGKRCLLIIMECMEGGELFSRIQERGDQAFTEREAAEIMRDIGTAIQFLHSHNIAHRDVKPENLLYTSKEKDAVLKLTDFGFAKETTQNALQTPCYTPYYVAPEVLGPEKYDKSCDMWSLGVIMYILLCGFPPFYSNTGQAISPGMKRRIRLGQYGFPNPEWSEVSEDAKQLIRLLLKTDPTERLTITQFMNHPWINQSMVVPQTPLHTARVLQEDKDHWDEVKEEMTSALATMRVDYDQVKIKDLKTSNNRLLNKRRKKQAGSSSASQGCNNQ
Sequence of GCK (Q12851 whole entry): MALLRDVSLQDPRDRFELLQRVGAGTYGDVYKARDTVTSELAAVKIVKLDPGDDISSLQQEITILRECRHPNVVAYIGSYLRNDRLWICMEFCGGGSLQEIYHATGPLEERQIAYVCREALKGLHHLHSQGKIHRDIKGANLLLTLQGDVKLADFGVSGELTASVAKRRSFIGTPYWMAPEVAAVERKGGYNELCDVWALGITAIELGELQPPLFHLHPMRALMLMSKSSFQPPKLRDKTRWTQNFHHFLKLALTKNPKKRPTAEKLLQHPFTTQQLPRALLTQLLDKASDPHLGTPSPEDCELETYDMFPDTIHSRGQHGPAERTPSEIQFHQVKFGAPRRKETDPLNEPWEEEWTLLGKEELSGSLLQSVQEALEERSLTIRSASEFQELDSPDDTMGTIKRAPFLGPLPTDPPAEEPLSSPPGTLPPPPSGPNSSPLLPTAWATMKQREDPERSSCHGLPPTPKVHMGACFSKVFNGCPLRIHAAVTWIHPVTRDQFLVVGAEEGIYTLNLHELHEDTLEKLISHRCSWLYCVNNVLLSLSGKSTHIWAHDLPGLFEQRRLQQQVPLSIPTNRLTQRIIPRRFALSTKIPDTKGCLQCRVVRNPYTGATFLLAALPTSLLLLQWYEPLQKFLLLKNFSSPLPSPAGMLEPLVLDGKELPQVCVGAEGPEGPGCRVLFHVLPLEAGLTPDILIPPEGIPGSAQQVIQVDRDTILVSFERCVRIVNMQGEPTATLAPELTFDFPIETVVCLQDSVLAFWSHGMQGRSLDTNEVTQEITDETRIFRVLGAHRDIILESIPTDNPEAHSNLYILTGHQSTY
Sequence of IRR (P14616 27-1297, species assumed): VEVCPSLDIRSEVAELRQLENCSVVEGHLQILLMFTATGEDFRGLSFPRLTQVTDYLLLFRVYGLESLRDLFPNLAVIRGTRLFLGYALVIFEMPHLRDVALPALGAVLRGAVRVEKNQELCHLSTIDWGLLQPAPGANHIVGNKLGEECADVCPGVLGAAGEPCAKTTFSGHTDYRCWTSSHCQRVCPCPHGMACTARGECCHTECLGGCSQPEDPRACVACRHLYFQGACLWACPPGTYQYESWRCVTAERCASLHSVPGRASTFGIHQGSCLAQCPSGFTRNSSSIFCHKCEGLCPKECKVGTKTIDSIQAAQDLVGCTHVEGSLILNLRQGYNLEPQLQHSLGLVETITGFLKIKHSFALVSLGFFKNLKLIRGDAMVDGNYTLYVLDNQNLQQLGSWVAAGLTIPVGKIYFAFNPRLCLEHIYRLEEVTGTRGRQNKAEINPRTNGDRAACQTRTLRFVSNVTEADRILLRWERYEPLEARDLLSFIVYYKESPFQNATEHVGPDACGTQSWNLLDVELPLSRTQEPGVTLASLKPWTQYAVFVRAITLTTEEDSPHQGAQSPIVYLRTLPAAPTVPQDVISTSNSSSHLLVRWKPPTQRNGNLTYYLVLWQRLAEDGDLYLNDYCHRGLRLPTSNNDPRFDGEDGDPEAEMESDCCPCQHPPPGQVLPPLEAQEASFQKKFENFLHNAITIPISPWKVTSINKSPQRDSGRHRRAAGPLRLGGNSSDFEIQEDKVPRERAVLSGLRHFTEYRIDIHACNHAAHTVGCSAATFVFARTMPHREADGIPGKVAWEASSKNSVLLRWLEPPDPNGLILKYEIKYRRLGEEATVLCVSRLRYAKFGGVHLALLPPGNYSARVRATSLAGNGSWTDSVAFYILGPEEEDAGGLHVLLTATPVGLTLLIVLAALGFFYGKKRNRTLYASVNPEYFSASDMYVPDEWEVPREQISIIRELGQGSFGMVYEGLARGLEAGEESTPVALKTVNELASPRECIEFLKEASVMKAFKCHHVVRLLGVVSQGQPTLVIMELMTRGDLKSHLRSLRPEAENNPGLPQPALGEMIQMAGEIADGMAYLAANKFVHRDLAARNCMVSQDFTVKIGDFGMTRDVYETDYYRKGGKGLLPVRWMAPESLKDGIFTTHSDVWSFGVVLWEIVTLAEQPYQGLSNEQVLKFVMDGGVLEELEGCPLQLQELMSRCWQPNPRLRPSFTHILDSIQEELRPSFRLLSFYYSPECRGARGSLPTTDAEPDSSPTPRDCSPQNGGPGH
Sequence of CSK (P41240 whole entry): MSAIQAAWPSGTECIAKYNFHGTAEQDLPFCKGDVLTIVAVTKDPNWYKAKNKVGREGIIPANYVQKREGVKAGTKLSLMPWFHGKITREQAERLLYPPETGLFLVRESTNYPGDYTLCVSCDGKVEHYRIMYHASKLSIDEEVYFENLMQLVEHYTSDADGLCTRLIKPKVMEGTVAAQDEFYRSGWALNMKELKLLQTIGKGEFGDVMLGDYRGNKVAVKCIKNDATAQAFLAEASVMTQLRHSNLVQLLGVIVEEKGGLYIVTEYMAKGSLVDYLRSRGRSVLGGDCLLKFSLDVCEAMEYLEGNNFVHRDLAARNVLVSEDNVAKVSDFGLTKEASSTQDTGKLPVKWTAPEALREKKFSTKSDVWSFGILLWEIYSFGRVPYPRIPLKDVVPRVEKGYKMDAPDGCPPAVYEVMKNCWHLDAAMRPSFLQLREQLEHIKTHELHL
Sequence of PKBb (P31751 whole entry): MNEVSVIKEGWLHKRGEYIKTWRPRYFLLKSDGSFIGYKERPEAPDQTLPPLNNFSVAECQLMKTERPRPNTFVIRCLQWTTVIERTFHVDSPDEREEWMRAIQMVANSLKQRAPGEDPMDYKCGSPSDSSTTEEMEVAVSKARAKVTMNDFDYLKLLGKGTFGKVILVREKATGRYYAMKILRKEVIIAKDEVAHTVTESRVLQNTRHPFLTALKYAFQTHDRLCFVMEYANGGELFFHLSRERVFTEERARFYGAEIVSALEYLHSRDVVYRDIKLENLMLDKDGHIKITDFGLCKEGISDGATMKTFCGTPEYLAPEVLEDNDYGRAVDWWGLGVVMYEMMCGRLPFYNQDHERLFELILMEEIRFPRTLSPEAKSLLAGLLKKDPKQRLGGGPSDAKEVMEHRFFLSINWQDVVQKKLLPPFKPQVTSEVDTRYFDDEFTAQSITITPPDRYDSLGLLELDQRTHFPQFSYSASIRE
Sequence of PIM2 (Q9P1W9 whole entry): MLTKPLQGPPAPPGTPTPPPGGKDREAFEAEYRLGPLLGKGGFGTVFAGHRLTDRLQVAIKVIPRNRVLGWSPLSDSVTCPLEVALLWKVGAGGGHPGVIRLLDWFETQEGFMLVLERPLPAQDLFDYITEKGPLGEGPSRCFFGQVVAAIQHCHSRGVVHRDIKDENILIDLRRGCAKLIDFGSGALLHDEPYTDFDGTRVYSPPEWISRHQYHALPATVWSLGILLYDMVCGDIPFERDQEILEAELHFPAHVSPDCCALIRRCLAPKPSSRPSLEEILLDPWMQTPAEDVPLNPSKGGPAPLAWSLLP

In general, remaining activity refers to the signal under treatment as a percentage of the control signal. Consider `Cc1nn(C)cc1-c1nc2c(Oc3ccc(C(=O)Nc4ccccc4)cc3)c(Cl)cnc2[nH]1` [compound 28c, 4-((6-Chloro-2-(1,3-dimethyl-1H-pyrazol-4-yl)-3H-imidazo[4,5-b]pyridin-7-yl)oxy)-N-phenylbenzamide], for which the remaining activity at 1 µM at CLK2 is 84%; at NEK2a, 96%; at ASK1 it was 119%; on MAPKAP-K3 it was 92%; on MKK6 it was 95%; on ERK1 it was 172%. The remaining activity at 1 µM at YES1 was 111%; at IRR it was 108%; at TAO1, 100%; on PKCz it was 100%; at PRAK, 103%; at IKKe it was 101%. In addition, the remaining activity at 1 µM on PKBb turned out to be 78%; at RSK2, 94%; on MARK4, 85%; at PIM2, 117%; on p38b MAPK, 89%; on DYRK2, 87%. Further, the remaining activity at 1 µM on ERK2 was 85%; at ERK8, 36%; at EPH-B2, 91%; on EPH-B3 it was 106%; on CSK, 76%; on GCK, 98%. Further, the remaining activity at 1 µM worked out at 101% at PHK; 82% on FGF-R1; 90% on JNK2; 109% on BRSK1; 102% at p38d MAPK; 112% at EPH-A4. The remaining activity at 1 µM is 102% at EPH-B4; 86% on CK1; 102% on PAK2; 102% at DYRK3; 124% at IR; 111% at BRSK2. Besides, the remaining activity at 1 µM at IKKb is 99%; at PIM3, 102%; on MEKK1, 93%. Besides, the “% activity remaining, AMPK” value in the experiment with AMPK came out at 83%.

As for `Cc1nn(C)cc1-c1nc2c(Oc3ccc(C(=O)NC4CCC4)cc3)c(Cl)cnc2[nH]1` [compound 40f, 4-((6-Chloro-2-(1,3-dimethyl-1H-pyrazol-4-yl)-3H-imidazo[4,5-b]pyridin-7-yl)oxy)-N-cyclobutylbenzamide], the remaining activity at 1 µM at CK1δ came out at 87%.

For the origin of these results see PMC3848336, “Aurora Isoform Selectivity: Design and Synthesis of Imidazo[4,5-b]pyridine Derivatives as Highly Selective Inhibitors of Aurora-A Kinase in Cells” (Journal of Medicinal Chemistry, 2013).
